Assay results from patent US20240059671A1, “TYROSINE KINASE 2 (TYK2) DEGRADATION COMPOUNDS AND METHODS OF USE” (CULLGEN (SHANGHAI), INC., priority 2020, published 2024).

Molecular target: TYK2 (Homo sapiens, UniProt P29597)
Assay: TYK2 protein degradation in NOMO-1 cells by immunoblotting
Type: cell-based
Set-up: endogenous in cells
Settings: NOMO-1 cells
Experimental: NOMO-1 cells were treated with CPD-155, CPD-157, and CPD-158 at 0.1, 1, 10, 100 and 1000 nM concentrations for 16 hours. […] Data shown that CPD-155, CPD-157, and CPD-158 are very potent at the reduction protein levels of TYK2.
MOLT-4 or NOMO-1 cells were cultured at 37° C. with 5% CO2 in RPMI 1640 Medium supplemented with 10% fetal bovine serum. Cells were authenticated using the short tandem repeat (STR) assays. Mycoplasma test results were negative.
Cultured cells were washed with cold PBS once and lysed in cold RIPA buffer supplemented with protease inhibitors and phosphatase inhibitors (Beyotime Biotechnology). The solutions were then incubated at 4° C. for 30 minutes with gentle agitation to fully lyse cells. Cell lysates were centrifuged at 13,000 rpm for 10 minutes at 4° C. and pellets were discarded. Total protein concentrations in the lysates were determined by BCA assays (Beyotime Biotechnology). Cell lysates were mixed with Laemmli loading buffer to 1× and heated at 99° C. for 5 min. Proteins were resolved on SDS-PAGE and visualized by chemiluminescence. Images were taken by a ChemiDoc MP Imaging system (Bio-Rad). Protein bands were quantitated using the accompanied software provided by Bio-Rad.

Sequence of TYK2 (P29597 whole entry): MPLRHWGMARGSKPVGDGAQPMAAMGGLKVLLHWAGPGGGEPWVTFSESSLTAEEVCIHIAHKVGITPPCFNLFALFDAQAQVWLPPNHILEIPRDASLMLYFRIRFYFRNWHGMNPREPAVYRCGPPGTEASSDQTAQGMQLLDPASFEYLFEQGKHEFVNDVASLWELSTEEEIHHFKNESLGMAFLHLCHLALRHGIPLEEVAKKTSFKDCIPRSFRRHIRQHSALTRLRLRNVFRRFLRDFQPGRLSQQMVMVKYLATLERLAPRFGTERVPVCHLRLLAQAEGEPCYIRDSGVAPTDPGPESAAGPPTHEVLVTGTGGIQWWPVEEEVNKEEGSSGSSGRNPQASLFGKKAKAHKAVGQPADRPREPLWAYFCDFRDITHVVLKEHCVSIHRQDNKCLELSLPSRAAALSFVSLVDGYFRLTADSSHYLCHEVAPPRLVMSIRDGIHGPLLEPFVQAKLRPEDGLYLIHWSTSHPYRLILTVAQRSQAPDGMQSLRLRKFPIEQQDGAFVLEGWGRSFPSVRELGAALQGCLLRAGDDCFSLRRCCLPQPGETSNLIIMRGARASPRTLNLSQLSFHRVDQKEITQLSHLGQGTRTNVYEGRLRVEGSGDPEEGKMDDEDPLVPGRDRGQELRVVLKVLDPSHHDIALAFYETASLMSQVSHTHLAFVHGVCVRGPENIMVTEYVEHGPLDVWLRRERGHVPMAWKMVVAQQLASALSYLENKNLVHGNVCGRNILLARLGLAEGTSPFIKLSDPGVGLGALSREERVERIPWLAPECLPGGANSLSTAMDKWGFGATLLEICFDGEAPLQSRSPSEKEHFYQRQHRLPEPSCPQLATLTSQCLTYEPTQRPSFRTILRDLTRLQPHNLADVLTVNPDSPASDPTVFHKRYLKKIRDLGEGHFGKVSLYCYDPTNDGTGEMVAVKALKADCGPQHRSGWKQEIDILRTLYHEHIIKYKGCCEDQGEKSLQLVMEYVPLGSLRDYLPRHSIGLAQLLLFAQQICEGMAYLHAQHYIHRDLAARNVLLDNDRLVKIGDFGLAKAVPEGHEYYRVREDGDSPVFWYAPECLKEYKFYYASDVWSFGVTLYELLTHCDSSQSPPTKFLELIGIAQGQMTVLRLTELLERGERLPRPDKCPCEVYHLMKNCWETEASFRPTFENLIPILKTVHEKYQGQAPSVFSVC

| SMILES | TYK2 Degradation (NOMO-1, 10 nM) | TYK2 Degradation (NOMO-1, 100 nM) |
| --- | --- | --- |
| CNC(=O)c1nnc(Nc2ccc(C#CC3CN(C(=O)CCCCC(=O)N[C@H](C(=O)N4C[C@H](O)C[C@H]4C(=O)N[C@@H](C)c4ccc(-c5scnc5C)cc4)C(C)(C)C)C3)cn2)cc1Nc1cccc(-c2ncn(C)n2)c1OC [CPD-123, 6-((5-((1-(6-(((S)-1-((2S,4R)-4-Hydroxy-2-(((S)-1-(4-(4-methylthiazol-5-yl)phenyl)ethyl)carbamoyl)pyrrolidin-1-yl)-3,3-dimethyl-1-oxobutan-2-yl)amino)-6-oxohexanoyl)azetidin-3-yl)ethynyl)pyridin-2-yl)amino)-4-((2-methoxy-3-(1-methyl-1H-1,2,4-triazol-3-yl)phenyl)amino)-N-methylpyridazine-3-carboxamide] | B (B: <60% TYK2 degradation, and >20% TYK2 degradation) | A (A: ≥60% TYK2 degradation) |
| CNC(=O)c1nnc(Nc2ccc(C#CC3CN(C(=O)CCCCCC(=O)N[C@H](C(=O)N4C[C@H](O)C[C@H]4C(=O)N[C@@H](C)c4ccc(-c5scnc5C)cc4)C(C)(C)C)C3)cn2)cc1Nc1cccc(-c2ncn(C)n2)c1OC [CPD-124, 6-((5-((1-(7-(((S)-1-((2S,4R)-4-hydroxy-2-(((S)-1-(4-(4-methylthiazol-5-yl)phenyl)ethyl)carbamoyl)pyrrolidin-1-yl)-3,3-dimethyl-1-oxobutan-2-yl)amino)-7-oxoheptanoyl)azetidin-3-yl)ethynyl)pyridin-2-yl)amino)-4-((2-methoxy-3-(1-methyl-1H-1,2,4-triazol-3-yl)phenyl)amino)-N-methylpyridazine-3-carboxamide] | A (A: ≥60% TYK2 degradation) | A (A: ≥60% TYK2 degradation) |
| CNC(=O)c1nnc(Nc2ccc(C#CC3CN(C(=O)CCCCCCCC(=O)N[C@H](C(=O)N4C[C@H](O)C[C@H]4C(=O)N[C@@H](C)c4ccc(-c5scnc5C)cc4)C(C)(C)C)C3)cn2)cc1Nc1cccc(-c2ncn(C)n2)c1OC [CPD-126, 6-((5-((1-(9-(((S)-1-((2S,4R)-4-hydroxy-2-(((S)-1-(4-(4-methylthiazol-5-yl)phenyl)ethyl)carbamoyl)pyrrolidin-1-yl)-3,3-dimethyl-1-oxobutan-2-yl)amino)-9-oxononanoyl)azetidin-3-yl)ethynyl)pyridin-2-yl)amino)-4-((2-methoxy-3-(1-methyl-H-1,2,4-triazol-3-yl)phenyl)amino)-N-methylpyridazine-3-carboxamide] | A (A: ≥60% TYK2 degradation) | A (A: ≥60% TYK2 degradation) |
| CNC(=O)c1nnc(Nc2ccc(C#CC3CN(C(=O)CCCCCCCCC(=O)N[C@H](C(=O)N4C[C@H](O)C[C@H]4C(=O)N[C@@H](C)c4ccc(-c5scnc5C)cc4)C(C)(C)C)C3)cn2)cc1Nc1cccc(-c2ncn(C)n2)c1OC [CPD-127, 6-((5-((1-(10-(((S)-1-((2S,4R)-4-hydroxy-2-(((S)-1-(4-(4-methylthiazol-5-yl)phenyl)ethyl)carbamoyl)pyrrolidin-1-yl)-3,3-dimethyl-1-oxobutan-2-yl)amino)-10-oxodecanoyl)azetidin-3-yl)ethynyl)pyridin-2-yl)amino)-4-((2-methoxy-3-(1-methyl-1H-1,2,4-triazol-3-yl)phenyl)amino)-N-methylpyridazine-3-carboxamide] | A (A: ≥60% TYK2 degradation) | A (A: ≥60% TYK2 degradation) |
| CNC(=O)c1nnc(Nc2ccc(CNC(=O)CCCCC(=O)N[C@H](C(=O)N3C[C@H](O)C[C@H]3C(=O)N[C@@H](C)c3ccc(-c4scnc4C)cc3)C(C)(C)C)cn2)cc1Nc1cccc(-c2ncn(C)n2)c1OC [CPD-129, N1-((S)-1-((2S,4R)-4-Hydroxy-2-(((S)-1-(4-(4-methylthiazol-5-yl)phenyl)ethyl)carbamoyl)pyrrolidin-1-yl)-3,3-dimethyl-1-oxobutan-2-yl)-N6-((6-((5-((2-methoxy-3-(1-methyl-1H-1,2,4-triazol-3-yl)phenyl)amino)-6-(methylcarbamoyl)pyridazin-3-yl)amino)pyridin-3-yl)methyl)adipamide] | C (C: ≤20% TYK2 degradation) | A (A: ≥60% TYK2 degradation) |
| CNC(=O)c1nnc(Nc2ccc(CNC(=O)CCCCCC(=O)N[C@H](C(=O)N3C[C@H](O)C[C@H]3C(=O)N[C@@H](C)c3ccc(-c4scnc4C)cc3)C(C)(C)C)cn2)cc1Nc1cccc(-c2ncn(C)n2)c1OC [CPD-130, N1-((S)-1-((2S,4R)-4-Hydroxy-2-(((S)-1-(4-(4-methylthiazol-5-yl)phenyl)ethyl)carbamoyl)pyrrolidin-1-yl)-3,3-dimethyl-1-oxobutan-2-yl)-N7-((6-((5-((2-methoxy-3-(1-methyl-1H-1,2,4-triazol-3-yl)phenyl)amino)-6-(methylcarbamoyl)pyridazin-3-yl)amino)pyridin-3-yl)methyl)heptanediamide] | – | B (B: <60% TYK2 degradation, and >20% TYK2 degradation) |
| CNC(=O)c1nnc(Nc2ccc(CNC(=O)CCCCCCC(=O)N[C@H](C(=O)N3C[C@H](O)C[C@H]3C(=O)N[C@@H](C)c3ccc(-c4scnc4C)cc3)C(C)(C)C)cn2)cc1Nc1cccc(-c2ncn(C)n2)c1OC [CPD-131, N1-((S)-1-((2S,4R)-4-hydroxy-2-(((S)-1-(4-(4-methylthiazol-5-yl)phenyl)ethyl)carbamoyl)pyrrolidin-1-yl)-3,3-dimethyl-1-oxobutan-2-yl)-N8-((6-((5-((2-methoxy-3-(1-methyl-1H-1,2,4-triazol-3-yl)phenyl)amino)-6-(methylcarbamoyl)pyridazin-3-yl)amino)pyridin-3-yl)methyl)octanediamide] | A (A: ≥60% TYK2 degradation) | A (A: ≥60% TYK2 degradation) |
| CNC(=O)c1nnc(Nc2ccc(CNC(=O)CCCCCCCC(=O)N[C@H](C(=O)N3C[C@H](O)C[C@H]3C(=O)N[C@@H](C)c3ccc(-c4scnc4C)cc3)C(C)(C)C)cn2)cc1Nc1cccc(-c2ncn(C)n2)c1OC [CPD-132, N1-((S)-1-((2S,4R)-4-Hydroxy-2-(((S)-1-(4-(4-methylthiazol-5-yl)phenyl)ethyl)carbamoyl)pyrrolidin-1-yl)-3,3-dimethyl-1-oxobutan-2-yl)-N9-((6-((5-((2-methoxy-3-(1-methyl-1H-1,2,4-triazol-3-yl)phenyl)amino)-6-(methylcarbamoyl)pyridazin-3-yl)amino)pyridin-3-yl)methyl)nonanediamide] | – | A (A: ≥60% TYK2 degradation) |

Now from value to compound:

| TYK2 Degradation (NOMO-1, 10 nM) | TYK2 Degradation (NOMO-1, 100 nM) | SMILES |
| --- | --- | --- |
| A (A: ≥60% TYK2 degradation) | A (A: ≥60% TYK2 degradation) | CNC(=O)c1nnc(Nc2ccc(C#CC3CN(C(=O)CCCCCCC(=O)N[C@H](C(=O)N4C[C@H](O)C[C@H]4C(=O)N[C@@H](C)c4ccc(-c5scnc5C)cc4)C(C)(C)C)C3)cn2)cc1Nc1cccc(-c2ncn(C)n2)c1OC [CPD-125, 6-((5-((1-(8-(((S)-1-((2S,4R)-4-hydroxy-2-(((S)-1-(4-(4-methylthiazol-5-yl)phenyl)ethyl)carbamoyl)pyrrolidin-1-yl)-3,3-dimethyl-1-oxobutan-2-yl)amino)-8-oxooctanoyl)azetidin-3-yl)ethynyl)pyridin-2-yl)amino)-4-((2-methoxy-3-(1-methyl-H-1,2,4-triazol-3-yl)phenyl)amino)-N-methylpyridazine-3-carboxamide] |
| – | C (C: ≤20% TYK2 degradation) | CNC(=O)c1nnc(Nc2ccc(CNC(=O)CCC(=O)N[C@H](C(=O)N3C[C@H](O)C[C@H]3C(=O)N[C@@H](C)c3ccc(-c4scnc4C)cc3)C(C)(C)C)cn2)cc1Nc1cccc(-c2ncn(C)n2)c1OC [CPD-128, N1-((S)-1-((2S,4R)-4-Hydroxy-2-(((S)-1-(4-(4-methylthiazol-5-yl)phenyl)ethyl)carbamoyl)pyrrolidin-1-yl)-3,3-dimethyl-1-oxobutan-2-yl)-N4-((6-((5-((2-methoxy-3-(1-methyl-1H-1,2,4-triazol-3-yl)phenyl)amino)-6-(methylcarbamoyl)pyridazin-3-yl)amino)pyridin-3-yl)methyl)succinamide] |
| A (A: ≥60% TYK2 degradation) | A (A: ≥60% TYK2 degradation) | CNC(=O)c1nnc(Nc2ccc(CNC(=O)CCCCCCCCC(=O)N[C@H](C(=O)N3C[C@H](O)C[C@H]3C(=O)N[C@@H](C)c3ccc(-c4scnc4C)cc3)C(C)(C)C)cn2)cc1Nc1cccc(-c2ncn(C)n2)c1OC [CPD-133, N1-((S)-1-((2S,4R)-4-hydroxy-2-(((S)-1-(4-(4-methylthiazol-5-yl)phenyl)ethyl)carbamoyl)pyrrolidin-1-yl)-3,3-dimethyl-1-oxobutan-2-yl)-N10-((6-((5-((2-methoxy-3-(1-methyl-1H-1,2,4-triazol-3-yl)phenyl)amino)-6-(methylcarbamoyl)pyridazin-3-yl)amino)pyridin-3-yl)methyl)decanediamide] |
| A (A: ≥60% TYK2 degradation) | A (A: ≥60% TYK2 degradation) | CNC(=O)c1nnc(Nc2ccc(C#CC3CCN(C(=O)CCCC(=O)N[C@H](C(=O)N4C[C@H](O)C[C@H]4C(=O)N[C@@H](C)c4ccc(-c5scnc5C)cc4)C(C)(C)C)CC3)cn2)cc1Nc1cccc(-c2ncn(C)n2)c1OC [CPD-134, 6-((5-((1-(5-(((S)-1-((2S,4R)-4-hydroxy-2-(((S)-1-(4-(4-methylthiazol-5-yl)phenyl)ethyl)carbamoyl)pyrrolidin-1-yl)-3,3-dimethyl-1-oxobutan-2-yl)amino)-5-oxopentanoyl)piperidin-4-yl)ethynyl)pyridin-2-yl)amino)-4-((2-methoxy-3-(1-methyl-1H-1,2,4-triazol-3-yl)phenyl)amino)-N-methylpyridazine-3-carboxamide] |
